Source: PMC8296708, “The pan HDAC inhibitor Givinostat improves muscle function and histological parameters in two Duchenne muscular dystrophy murine models expressing different haplotypes of the LTBP4 gene” (Skeletal Muscle, 2021)

Test system: D2.B10 mice
Assay: Myofiber cross-sectional area (CSA) in D2.B10 mice
Type: in vivo, mouse (D2.B10-Dmd^mdx/J)
Conditions: for TA CSA / GAS CSA: D2.B10 mice, Givinostat 37.5 mg/kg
Source text: Tibialis anterior (TA), gastrocnemius (GAS), DIA, and heart were collected from mice maintained under isoflurane anesthesia and sacrificed by cervical dislocation. These muscles were collected from C57BL/10J wt and mdx (5 mice/group) at the end of treatments and from DBA/2J wt and D2.B10 mice (5 mice/group) at two different time points to be examined by a pathologist (for more details see Additional Table 1). Due to the results obtained by the functional tests, muscles from only some treatment groups were analyzed in both DMD models (see Additional Table 1). All the collected muscles were fixed in 10% buffered formalin solution (Bio-optica, Milan, Italy) at + 4 °C for at least 48 h. After fixation, muscular samples were transversely trimmed, caged, and paraffin embedded overnight with an Automated Vacuum Tissue Processor Floor (ETP, Histo-Line Laboratories) and included in paraffin blocks. Serial transverse cross-sections (4 μm thick) were cut with a microtome (Leica RM 2255), collected onto uncoated glass slides, and stained using a standard protocol for hematoxylin and eosin (Mayer hematoxylin & Aqueous G Eosin 1%, Bio-Optica) and Sirius Red staining (Direct Red 80, Sigma-Aldrich). For the image analysis and quantitation, hematoxylin and eosin- and Sirius Red-stained slides were examined with an Olympus BX51 light microscope. From each sample, 1 to 3 random microphotographs at the magnification of × 4 and × 10 (TA, GAS and heart) or × 20 (DIA) were collected using Image-Pro Plus system. The digital images were processed by a pathologist using ImageJ software (U.S. National Institutes of Health, Bethesda, MD, USA). To quantify CSA and centralized nuclei (%) on hematoxylin and eosin-stained sections, one hundred myofibers were manually measured for each muscle/mouse using a tablet pen (Wacom Intruos) and analyzed by the ImageJ software after a linear calibration of 150 μm. The fibrotic area, corresponding to the area stained in red, was compared to the total area of the tissue section, and the results were expressed as percentage fibrosis. The % of fibrosis of muscles in the different treatment groups was expressed by averaging the three values obtained from each muscle.
The deciles of the CSA of the animals treated with Givinostat at the different doses were plotted against the corresponding deciles of the vehicle-treated mice and a linear regression analysis was performed on natural [CSAtreated = b CSAcontrol + a] and log_transformed data [log(CSAtreated) = log(a) + b log(CSAcontrol)]. […] In case of untransformed data, this means that the effect of Givinostat treatment is additive and any decile of the CSAtreatment distribution may be derived from the control data summing up a constant quantity (S) to each fiber AREA of the control group (CSAtreated = CSAcontrol + S). In case of log_transformed data, the effect of Givinostat has to be considered as a multiplicative factor on any generic fiber of the muscle under evaluation, whose size, after the treatment, results K times larger in comparison to the control group value (CSAtreated […] = K × CSAcontrol, with K = 10^a). The S or K parameter values were then determined through an iterative estimation procedure, based on sum of squares (SSQ) minimization, directly comparing the CSA distribution observed in treated animals with that obtained summing up the S value or multiplying by K the CSA values of the control group.

[1] = T8, prednisone 1 mg/kg (vehicle 600)
[2] = T8, prednisone 1 mg/kg (vehicle 1050)
[3] = T16, prednisone 1 mg/kg (vehicle 300)

| SMILES | TA CSA [1] [μm^2] | GAS CSA [2] [μm^2] | GAS CSA [3] [μm^2] | TA CSA [3] [μm^2] | Effect of steroid on cross-sectional area and centralized nuclei (D2.B10 muscles, 1 mg/kg i.p. weekly) |
| --- | --- | --- | --- | --- | --- |
| C[C@]12C=CC(=O)C=C1CC[C@@H]1[C@@H]2C(=O)C[C@@]2(C)[C@H]1CC[C@]2(O)C(=O)CO [prednisone] | 300 | 600 | 300 | 300 | unable to affect cross-sectional area or the number of centralized nuclei |
| CCN(CC)Cc1ccc2cc(COC(=O)Nc3ccc(C(=O)NO)cc3)ccc2c1 [Givinostat] | 300 | 600 | 450 | 300 | – |
